Literature values, collected in patent US20140255503A1, “PHARMACEUTICAL COMPOSITION OF OMEPRAZOLE” (LABORATORIOS DEL DR. ESTEVE, S.A., priority 2011, published 2014).

Tests used:
[1] = not given; remark: listed apart in the source

Stability in acid media (acid media): rapidly degraded | Stability under alkaline conditions (alkaline conditions): acceptable stability | Solubility in acetone ([1]; acetone): slightly soluble | Solubility in ethanol ([1]; ethanol): freely soluble | Solubility in isopropanol ([1]; isopropanol): slightly soluble | Solubility in methanol ([1]; methanol): freely soluble | Solubility in water ([1]; water): very slightly soluble
SMILES: COc1ccc2[nH]c([S+]([O-])Cc3ncc(C)c(OC)c3C)nc2c1 (stereo not shown) [Omeprazole, 5-methoxy-2-(4-methoxy-3,5-dimethylpyridin-2-ylmethylsulfinyl)-1H-benzimidazole]
